{"source": "patent US20250032530A1", "about": "“USE OF AURANOFIN AS AN INHIBITOR OF ATYPICAL PROTEIN KINASE C FOR TREATMENT OF NEURODEGENERATIVE DISORDERS” (UNIVERSITY OF SOUTH FLORIDA, priority 2021, published 2025)", "key": {"recombinant PKC-ι/λ [1]": {"target": "T1, recombinant PKC-ι/λ (Homo sapiens, UniProt P41743)", "T1 sequence (P41743 1-596)": "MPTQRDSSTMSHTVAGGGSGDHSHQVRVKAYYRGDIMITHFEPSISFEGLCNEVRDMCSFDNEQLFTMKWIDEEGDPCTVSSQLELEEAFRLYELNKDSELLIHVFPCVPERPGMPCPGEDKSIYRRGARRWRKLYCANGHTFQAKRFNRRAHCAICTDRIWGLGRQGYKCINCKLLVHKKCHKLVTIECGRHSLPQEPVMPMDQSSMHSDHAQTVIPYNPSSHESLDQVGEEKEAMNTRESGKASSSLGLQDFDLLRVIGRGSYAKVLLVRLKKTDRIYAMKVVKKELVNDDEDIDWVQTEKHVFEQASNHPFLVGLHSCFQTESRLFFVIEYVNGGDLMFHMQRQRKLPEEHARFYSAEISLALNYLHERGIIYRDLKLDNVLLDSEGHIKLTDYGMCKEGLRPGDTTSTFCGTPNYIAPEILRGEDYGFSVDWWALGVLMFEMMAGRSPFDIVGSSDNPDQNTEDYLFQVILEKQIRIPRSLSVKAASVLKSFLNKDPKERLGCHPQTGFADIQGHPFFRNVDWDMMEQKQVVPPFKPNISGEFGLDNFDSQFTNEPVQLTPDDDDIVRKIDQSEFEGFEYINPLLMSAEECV", "details": "cited from earlier work"}, "recombinant PKC-ι/λ [2]": {"target": "T1, recombinant PKC-ι/λ", "assay": "Inhibition of recombinant PKC-ι/λ", "assay_type": "biochemical", "details": "Example 2", "description": "1H-imidazole-4-carboxamide,-5-amino-1-[2,3-dihydroxy-4-[(hydroxyl)methyl]cyclopentyl-[1R-(1a,2b,3b,4a)] […] (ICAPP).\naPKC Inhibitors. We identified by HTS compounds that target the substrate-binding site of aPKCs and potently (IC50s10-30 nM) inhibit recombinant PIP3-dependent aPKCs, but not DAG-dependent PKCs. Three compounds have been studied in detail: (a) 1H-imidazole-4-carboxamide, 5-amino-1-[2,3-dihydroxy-4-[(phosphono-oxy)methyl]cyclopentyl-[1R-(1a,2b,3b,4a)] […] Thus, these agents can reduce brain aPKC activity, indirectly at lower doses by inhibiting liver aPKC and correcting hyperinsulinemia in insulin-resistant states, and, at higher doses, by acting directly on brain PKC-λ/ι."}, "[3]": {"tested_on": "aPKC, Akt2, AMP-activated kinase (AMPK), FoxO1", "details": "isolated human hepatocytes; cited from earlier work"}, "[4]": {"tested_on": "PKC-λ/ι activity, BACE1 activity, Aβ1-40/42", "details": "LA1-5s neuronal cells, previously reported; cited from earlier work"}, "[5]": {"tested_on": "recombinant forms of PKC-α, PKC-β, PKC-δ, PKCε, or PKC-θ", "details": "cited from earlier work"}, "Akt": {"tested_on": "Akt", "assay": "Insulin-induced Akt activation in LA1-5s neuronal cells", "assay_type": "cell-based, human", "details": "200 nM insulin, 24 hours", "text": "(§1) Cell lysates were subjected to Western analyses for phosphorylated/activated forms of aPKC, NFκB and Akt. Representative blots of indicated proteins are shown in upper bands. […] Bargrams show Mean±SEM of 3-4 determinations. Asterisks indicate P<0.05; comparison of designated group versus the uninhibited, insulin-treated group (ANOVA).\n(§2) LA1-5s neuronal cells were originally obtained from non-catecholamine-producing neuroblastoma of a person and are commercially available from the European Collection of Authenticated Cell Cultures. Incubation conditions were as described.\n(§3) As described, western analyses were conducted with rabbit antisera, using: anti-aPKC [recognizes a C-terminal sequence in all aPKCs (Santa Cruz Biotechnologies, Santa Cruz, CA, USA)]; anti-phospho-threonine (thr)-560/555-PKC-ζ/λ/ι [recognizes a phosphopeptide sequence present in all aPKCs and indicates activation (Invitrogen, Carlsbad, CA, USA)]; anti-phospho-serine (ser)-473-Akt [recognizes a phosphopeptide sequence at 60 kDa present in all Akt's-1/2/3 and indicates activation (Cell Signaling Technologies, Danvers, MA, USA)]; anti-4 kDa-AP1-40/42 (Cell Signaling Technologies, Danvers, MA, USA); anti-mouse-70 kDa-BACE1 and anti-human-70 kDa-BACE1 (ThermoFisher); and anti-phospho-threonine (thr)-231-tau (Gene Tex, Irvine, CA, USA). […]"}, "recombinant PKC-ζ": {"target": "T2, recombinant PKC-ζ (Homo sapiens, UniProt Q05513)", "T2 sequence (Q05513 1-592)": "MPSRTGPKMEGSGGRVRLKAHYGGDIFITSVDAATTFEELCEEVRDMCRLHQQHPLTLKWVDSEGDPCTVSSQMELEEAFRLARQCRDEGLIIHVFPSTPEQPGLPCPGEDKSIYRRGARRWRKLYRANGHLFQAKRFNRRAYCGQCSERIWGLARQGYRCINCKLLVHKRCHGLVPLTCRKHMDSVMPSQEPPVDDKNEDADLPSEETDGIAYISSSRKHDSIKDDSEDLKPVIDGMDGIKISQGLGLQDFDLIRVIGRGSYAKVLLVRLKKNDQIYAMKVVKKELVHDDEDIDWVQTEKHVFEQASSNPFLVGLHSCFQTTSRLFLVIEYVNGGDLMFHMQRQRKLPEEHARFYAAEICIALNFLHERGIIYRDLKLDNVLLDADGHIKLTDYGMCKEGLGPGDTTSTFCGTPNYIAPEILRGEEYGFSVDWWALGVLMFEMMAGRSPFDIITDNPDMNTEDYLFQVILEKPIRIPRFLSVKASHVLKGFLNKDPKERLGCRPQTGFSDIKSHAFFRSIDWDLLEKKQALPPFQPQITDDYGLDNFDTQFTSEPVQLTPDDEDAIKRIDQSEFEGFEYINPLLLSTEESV", "details": "cited from earlier work"}, "BACE1": {"tested_on": "BACE1", "assay": "BACE1 levels in LA1-5s neuronal cells treated with insulin", "assay_type": "cell-based, human", "description": "Values of BACE1 are Mean±SEM of 4 values. Asterisks indicate P<0.05 for comparison of designated group versus the untreated control group (ANOVA).\nas §2\nAs described, western analyses were conducted with rabbit antisera, using: anti-aPKC [recognizes a C-terminal sequence in all aPKCs (Santa Cruz Biotechnologies, Santa Cruz, CA, USA)]; anti-phospho-threonine (thr)-560/555-PKC-ζ/λ/ι [recognizes a phosphopeptide sequence present in all aPKCs and indicates activation (Invitrogen, Carlsbad, CA, USA)]; anti-phospho-serine (ser)-473-Akt [recognizes a phosphopeptide sequence at 60 kDa present in all Akt's-1/2/3 and indicates activation (Cell Signaling Technologies, Danvers, MA, USA)]; anti-4 kDa-AP1-40/42 (Cell Signaling Technologies, Danvers, MA, USA); anti-mouse-70 kDa-BACE1 and anti-human-70 kDa-BACE1 (ThermoFisher); and anti-phospho-threonine (thr)-231-tau (Gene Tex, Irvine, CA, USA). Samples from all experimental groups within each study were compared on the same blots and routinely checked with loading controls. All comparisons in histograms were made relative to the mean value of the basal control group, i.e., wild-type mice consuming standard low-fat mouse chow, untreated with insulin or aPKC inhibitors, and having normal levels of aPKCs and other cellular proteins."}, "NFκB": {"tested_on": "NFκB", "assay": "Insulin-induced NFκB activity in LA1-5s neuronal cells", "assay_type": "cell-based, human", "details": "200 nM insulin, 24 hours; 1 μM ACPD, increasing concentrations of auranofin", "text": "as §1, §2, §3"}, "aPKC": {"tested_on": "aPKC", "details": "cited from earlier work"}, "PKCι and PKCζ": {"tested_on": "PKCι and PKCζ", "details": "cited from earlier work"}}, "note": "Read-outs that look alike come from different tables or passages of the source."}
{"smiles": "NC(=O)c1ncn([C@@H]2C[C@H](COP(=O)(O)O)[C@@H](O)[C@H]2O)c1N", "note": "[ICAPP]", "values": [{"measurement": "IC50", "setting": "recombinant PKC-ι/λ [1]", "value": "1 to 10", "unit": "nM"}, {"measurement": "IC50", "setting": "recombinant PKC-ι/λ [2]", "value": "1 to 10", "unit": "nM"}, {"measurement": "FoxO1 phosphorylation/inactivation", "setting": "[3]", "value": "increase FoxO1 phosphorylation/inactivation"}, {"measurement": "inhibition of aPKC, Akt2, AMPK", "setting": "[3]", "value": "inhibit aPKC but not Akt2 or AMP-activated kinase (AMPK)"}, {"measurement": "insulin-induced increases in PKC-λ/ι activity, BACE1 activity and production of Aβ1-40/42", "setting": "[4]", "value": "blocked"}, {"measurement": "effect on recombinant PKC-α, PKC-β, PKC-δ, PKCε, PKC-θ", "setting": "[5]", "value": "no effect"}, {"measurement": "insulin-induced Akt activation", "setting": "Akt", "value": "not Akt activation"}, {"measurement": "IC50", "setting": "recombinant PKC-ζ", "value": "200 to 500", "unit": "nM"}, {"measurement": "insulin-induced increase in BACE1 levels", "setting": "BACE1; 200 nM insulin, 24 hours, increasing concentrations of ICAPP", "value": "diminished"}, {"measurement": "basal/resting levels of BACE1", "setting": "BACE1; at higher levels of inhibitor", "value": "reduced basal/resting levels of BACE1"}, {"measurement": "insulin-induced increase in NFκB activity", "setting": "NFκB", "value": "diminished"}, {"measurement": "inhibition of brain aPKC", "setting": "aPKC; at higher doses", "value": "inhibit brain aPKC"}, {"measurement": "aPKC inhibition in liver, muscle, adipose tissue", "setting": "aPKC; intact mice, employed doses", "value": "inhibit aPKC in liver, but not in muscle or adipose tissue"}]}
{"smiles": "O=C(O)CC([S-])C(=O)O.[Au+]", "note": "(centres unmarked) [aurothiomalate]", "values": [{"measurement": "insulin activation of aPKC (PB1 site)", "setting": "PKCι and PKCζ", "value": "inhibit insulin activation of aPKC"}]}
